Results: patent US20110306664A1, “MEDICAL DIETARY COMPOSITION FOR TREATING NEURODEGENERATIVE DISEASES” (SOFEDUS S.R.L., priority 2008, published 2011)
Like-named read-outs stand apart in the source and are kept apart here.

How the values were obtained:
[1] = CSF fatty acid analysis (passage of the blood-brain barrier); assay type: in vivo, human; details: humans, given as LO+CLA
Protocol: At baseline and during the 3rd visit, aliquots of cerebrospinal fluid (CSF) were collected by lumbar puncture in all patients. Blood and CSF samples were centrifuged and stored at −80° C., until analyses.
The CSF samples were analysed for fatty acid composition, in order to verify whether CLA and erucic acid are able to pass, and to what extent, the blood-brain barrier.
Total lipids were extracted from plasma or CSF using chloroform/methanol 2:1 (v/v) (Folch J, Lees M, Sloane-Stanley GH. A simple method for the isolation and purification of total lipid from animal tissues. J. Biol. Chem. 1957; 226: 497-509). Separation of phospholipids from total lipids was performed as previously reported (Banni S, Carta G, Angioni E, Murru E, Scanu P, Melis MP, et al. Distribution of conjugated linoleic acid and metabolites in different lipid fractions in the rat liver. J Lipid Res 2001; 42: 1056-1061.). […]
Since saturated fatty acids are transparent to UV, they were measured, after methylation, by means of a gas chromatograph (Agilent, Model 6890, Palo Alto, Calif.) equipped with split ratio of 20:1 injection port, a flame ionization detector (FID), an autosampler (Agilent, Model 7673), a 100 m HP-88 fused capillary column (Agilent), and an Agilent ChemStation software system. […]

[2] = animal models, incorporated in the brain (Fa 2005); cited from earlier work
[3] = rat brain (Golovko and Murphy 2006); cited from earlier work
[4] = in the long run (Kramer et al.); cited from earlier work

Molecule	passage of CLA through the blood-brain barrier [1]	passage through the blood-brain barrier [2]	passage through the blood-brain barrier [3]	myocardial lipidosis [4]
conjugated linoleic acid [CLA]	prompt entry of CLA through the blood-brain barrier in humans	capable of passing through the blood-brain barrier		
CCCCCCCC/C=C\CCCCCCCCCCCC(=O)O [erucic acid]			hardly passes through the blood-brain barrier	cause in the long run myocardial lipidosis
